The results in this text go back to PubChem BioAssay AID256 (DTP/NCI, 2004).

The assay deals with CD2F1 mice, L1210 leukemia ip, survival T/C. Description: NCI In Vivo Anticancer Drug Screen. Data for tumor model L1210 Leukemia (intraperitoneal) in CD2F1 (CDF1) mice. Conditions: higher = longer survival. Put shortly: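 Mice carrying a transplanted tumor received test compound or vehicle alone. The value is the measurement in the treated group divided by that in the vehicle-treated control group.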

[1] abbreviates: endpoint: mean survival time, dose: 100.0 mg/kg/injection, schedule: Q04DX003 (ip), vehicle: saline.
Setting [2] is: endpoint: mean survival time, dose: 50.0 mg/kg/injection, schedule: Q04DX003 (ip), vehicle: saline.
Where [3] appears, read: endpoint: mean survival time, dose: 200.0 mg/kg/injection, schedule: Q04DX003 (ip), vehicle: saline.
Where [4] appears, read: endpoint: mean survival time, dose: 100.0 mg/kg/injection, schedule: Q04DX003 (ip), vehicle: saline with Tween-80.
Setting [5] is: endpoint: mean survival time, dose: 25.0 mg/kg/injection, schedule: Q01DX001 (ip), vehicle: Klucel (hydroxypropylcellulose) (HPC).
[6] abbreviates: endpoint: mean survival time, dose: 50.0 mg/kg/injection, schedule: Q01DX001 (ip), vehicle: Klucel (hydroxypropylcellulose) (HPC).

The structures appear in SMILES notation. Values joined by “and” are separate entries in the source; they are usually repeats but may differ in a detail not shown here. Equal entries are not always repeated. Toxic doses and inconclusive results are not listed.

Take `Nc1ccn(C2OC(CO)C(O)C2O)c(=O)n1` (stereo not given): the T/C by setting is: (endpoint: mean survival time, dose: 8.0 mg/kg/injection, schedule: Q X X004 (other), vehicle: saline) 86 % of control; (endpoint: mean survival time, dose: 16.0 mg/kg/injection, schedule: Q01DX008 (ip), vehicle: saline) 95 % of control; (endpoint: mean survival time, dose: 16.0 mg/kg/injection, schedule: Q03HX024 (oral), vehicle: saline) 100 % of control; (endpoint: mean survival time, dose: 30.0 mg/kg/injection, schedule: Q03HX024 (ip), vehicle: saline) 93 % of control; (endpoint: mean survival time, dose: 32.0 mg/kg/injection, schedule: Q01DX008 (ip), vehicle: saline) 93 % of control; (endpoint: mean survival time, dose: 32.0 mg/kg/injection, schedule: Q01DX008 (oral), vehicle: saline) 100 % of control. The T/C reads like this: (endpoint: mean survival time, dose: 64.0 mg/kg/injection, schedule: Q01DX008 (ip), vehicle: saline) 98 % of control; (endpoint: mean survival time, dose: 64.0 mg/kg/injection, schedule: Q01DX008 (oral), vehicle: saline) 98 % of control; (endpoint: mean survival time, dose: 100.0 mg/kg/injection, schedule: Q01DX009 (ip), vehicle: saline) 100 % of control; under setting [1], 96 % of control; (endpoint: mean survival time, dose: 128.0 mg/kg/injection, schedule: Q01DX001 (ip), vehicle: saline) 120 % of control; (endpoint: mean survival time, dose: 128.0 mg/kg/injection, schedule: Q01DX008 (ip), vehicle: saline) 95 % of control. The T/C (endpoint: mean survival time, dose: 128.0 mg/kg/injection, schedule: Q03HX024 (oral), vehicle: saline) was 110 % of control and 95 % of control; the T/C (endpoint: mean survival time, dose: 128.0 mg/kg/injection, schedule: Q04DX003 (ip), vehicle: saline) was 98 % of control; the T/C (endpoint: mean survival time, dose: 128.0 mg/kg/injection, schedule: Q04DX003 (oral), vehicle: saline) is 120 % of control and 100 % of control; the T/C (endpoint: mean survival time, dose: 200.0 mg/kg/injection, schedule: Q01DX009 (ip), vehicle: saline) is 93 % of control; the T/C (endpoint: mean survival time, dose: 256.0 mg/kg/injection, schedule: Q01DX001 (ip), vehicle: saline) is 91 % of control; the T/C (endpoint: mean survival time, dose: 256.0 mg/kg/injection, schedule: Q01DX001 (oral), vehicle: saline) is 98 % of control. The T/C by setting is: (endpoint: mean survival time, dose: 256.0 mg/kg/injection, schedule: Q01DX009 (ip), vehicle: saline) 91 % of control; (endpoint: mean survival time, dose: 256.0 mg/kg/injection, schedule: Q04DX003 (oral), vehicle: saline) 98 % of control; (endpoint: mean survival time, dose: 512.0 mg/kg/injection, schedule: Q01DX001 (ip), vehicle: saline) 120 % of control and 97 % of control; (endpoint: mean survival time, dose: 512.0 mg/kg/injection, schedule: Q01DX001 (oral), vehicle: saline) 100 % of control; (endpoint: mean survival time, dose: 512.0 mg/kg/injection, schedule: Q04DX003 (ip), vehicle: saline) 96 % of control; (endpoint: mean survival time, dose: 600.0 mg/kg/injection, schedule: Q04DX002 (ip), vehicle: saline) 94 % of control. Further, the T/C reads like this: (endpoint: mean survival time, dose: 1024.0 mg/kg/injection, schedule: Q01DX001 (ip), vehicle: saline) 90 % of control; (endpoint: mean survival time, dose: 1024.0 mg/kg/injection, schedule: Q01DX009 (ip), vehicle: saline) 95 % of control; (endpoint: mean survival time, dose: 1024.0 mg/kg/injection, schedule: Q01DX009 (oral), vehicle: saline) 98 % of control; (endpoint: mean survival time, dose: 1024.0 mg/kg/injection, schedule: Q04DX003 (oral), vehicle: saline) 100 % of control; (endpoint: mean survival time, dose: 1200.0 mg/kg/injection, schedule: Q04DX002 (ip), vehicle: saline) 91 % of control; (endpoint: mean survival time, dose: 2400.0 mg/kg/injection, schedule: Q04DX003 (ip), vehicle: saline) 96 % of control.
With `N#C/C(N)=C(\C#N)N=C1OCC(O)C(O)C1O` (stereo not given), the T/C runs as follows: (endpoint: mean survival time, dose: 12.5 mg/kg/injection, schedule: Q01DX005 (ip), vehicle: other) 102 % of control; (endpoint: mean survival time, dose: 25.0 mg/kg/injection, schedule: Q01DX005 (ip), vehicle: other) 101 % of control; (endpoint: mean survival time, dose: 50.0 mg/kg/injection, schedule: Q01DX005 (ip), vehicle: other) 98 % of control; (endpoint: mean survival time, dose: 100.0 mg/kg/injection, schedule: Q01DX005 (ip), vehicle: other) 106 % of control; (endpoint: mean survival time, dose: 200.0 mg/kg/injection, schedule: Q01DX005 (ip), vehicle: other) 112 % of control.
Take `COc1nc(NC2OC(CO)C(O)C(O)C2O)cc(=O)n1C` (stereo not given): the T/C is, setting by setting: (endpoint: median survival time, dose: 12.5 mg/kg/injection, schedule: Q01DX005 (ip), vehicle: saline) 98 % of control; (endpoint: median survival time, dose: 25.0 mg/kg/injection, schedule: Q01DX005 (ip), vehicle: saline) 98 % of control; (endpoint: median survival time, dose: 50.0 mg/kg/injection, schedule: Q01DX005 (ip), vehicle: saline) 100 % of control; (endpoint: median survival time, dose: 100.0 mg/kg/injection, schedule: Q01DX005 (ip), vehicle: saline) 102 % of control; (endpoint: median survival time, dose: 200.0 mg/kg/injection, schedule: Q01DX005 (ip), vehicle: saline) 102 % of control.
For the molecule `CCOC(=O)NP(=O)(N1CC1(C)C)N1CC1(C)C` (stereo not given), the T/C (endpoint: mean survival time, dose: 45.0 mg/kg/injection, schedule: Q01DX009 (ip), vehicle: saline) was 170 % of control; the T/C (endpoint: mean survival time, dose: 90.0 mg/kg/injection, schedule: Q01DX009 (ip), vehicle: saline) was 232 % of control; the T/C (endpoint: mean survival time, dose: 180.0 mg/kg/injection, schedule: Q01DX009 (ip), vehicle: saline) was 261 % of control.
For the molecule `C[n+]1ccc(Nc2ccc(NC(=O)c3ccc(Nc4cc[n+](C)c5ccc([N+](=O)[O-])cc45)cc3)cc2)cc1`, the T/C (endpoint: mean survival time, dose: 1.0 mg/kg/injection, schedule: Q01DX009 (ip), vehicle: water) was 103 % of control; the T/C (endpoint: mean survival time, dose: 2.0 mg/kg/injection, schedule: Q01DX009 (ip), vehicle: water) is 110 % of control; the T/C (endpoint: mean survival time, dose: 4.0 mg/kg/injection, schedule: Q01DX009 (ip), vehicle: water) is 116 % of control; the T/C (endpoint: mean survival time, dose: 16.0 mg/kg/injection, schedule: Q01DX009 (ip), vehicle: water) was 174 % of control; the T/C (endpoint: mean survival time, dose: 32.0 mg/kg/injection, schedule: Q01DX009 (ip), vehicle: water) is 223 % of control; the T/C under setting [2] is 162 % of control. Further, the T/C runs as follows: under setting [1], 186 % of control; under setting [3], 201 % of control.
In the case of `O=C(O)c1c(F)c(F)c(F)c(C(=O)O)c1F`, the T/C reads like this: (endpoint: mean survival time, dose: 12.5 mg/kg/injection, schedule: Q01DX009 (ip), vehicle: saline) 89 % of control; (endpoint: mean survival time, dose: 25.0 mg/kg/injection, schedule: Q01DX009 (ip), vehicle: saline) 95 % of control; (endpoint: mean survival time, dose: 25.0 mg/kg/injection, schedule: Q04DX003 (ip), vehicle: saline) 89 % of control; (endpoint: mean survival time, dose: 50.0 mg/kg/injection, schedule: Q01DX009 (ip), vehicle: saline) 95 % of control; under setting [2], 88 % of control; under setting [4], 93 % of control.
For `COc1ccccc1N=O`, the T/C was 93 % of control (endpoint: mean survival time, dose: 12.5 mg/kg/injection, schedule: Q01DX001 (ip), vehicle: Klucel (hydroxypropylcellulose) (HPC)); 96 % of control under setting [5]; 93 % of control under setting [6].
Take `COc1ccc(NC(=O)Oc2cc(C)c(Cl)cc2C(C)C)c(Cl)c1`: the T/C was 100 % of control (endpoint: mean survival time, dose: 50.0 mg/kg/injection, schedule: Q01DX009 (ip), vehicle: Klucel (hydroxypropylcellulose) (HPC)); 96 % of control (endpoint: mean survival time, dose: 100.0 mg/kg/injection, schedule: Q01DX009 (ip), vehicle: Klucel (hydroxypropylcellulose) (HPC)); 98 % of control (endpoint: mean survival time, dose: 100.0 mg/kg/injection, schedule: Q04DX003 (ip), vehicle: Klucel (hydroxypropylcellulose) (HPC)); 96 % of control (endpoint: mean survival time, dose: 200.0 mg/kg/injection, schedule: Q01DX009 (ip), vehicle: Klucel (hydroxypropylcellulose) (HPC)); 98 % of control (endpoint: mean survival time, dose: 200.0 mg/kg/injection, schedule: Q04DX003 (ip), vehicle: Klucel (hydroxypropylcellulose) (HPC)); 100 % of control (endpoint: mean survival time, dose: 400.0 mg/kg/injection, schedule: Q04DX003 (ip), vehicle: Klucel (hydroxypropylcellulose) (HPC)).
`Cc1ccc(N=Cc2cc(I)cc(I)c2O)cc1.Cc1ccc(N=Cc2cc(I)cc(I)c2O)cc1.[Co]`: the T/C reads like this: under setting [2], 87 % of control; under setting [1], 104 % of control; under setting [3], 96 % of control.
As for `c1ccc(-c2nc3ccccc3s2)nc1`, the T/C by setting is: under setting [4], 96 % of control; (endpoint: mean survival time, dose: 200.0 mg/kg/injection, schedule: Q04DX003 (ip), vehicle: saline with Tween-80) 103 % of control; (endpoint: mean survival time, dose: 400.0 mg/kg/injection, schedule: Q04DX003 (ip), vehicle: saline with Tween-80) 96 % of control.
In the case of `CCOC(=O)C(=O)C(C#N)c1ccccc1` (stereo not given), the T/C reads like this: under setting [5], 92 % of control; under setting [6], 100 % of control; (endpoint: mean survival time, dose: 100.0 mg/kg/injection, schedule: Q01DX001 (ip), vehicle: Klucel (hydroxypropylcellulose) (HPC)) 100 % of control and 106 % of control.
